From ChEMBL document CHEMBL4257449, “New N-(2-phenyl-4-oxo-1,3-thiazolidin-3-yl)-1,2-benzothiazole-3-carboxamides and acetamides as antimicrobial agents” (2017)
In brackets after ≈: the same amount, converted by molar mass.

Columns and labels:
Staphylococcus aureus [1] = assay: Bactericidal activity against Staphylococcus aureus ATCC 6538 incubated for 24 hrs followed by serial sub-cultivation and measured after 24 hrs by microdilution method; format: functional
Enterobacter cloacae [2] = assay: Bactericidal activity against Enterobacter cloacae incubated for 24 hrs followed by serial sub-cultivation and measured after 24 hrs by microdilution method; format: functional
Aspergillus versicolor [3] = assay: Fungicidal activity against Aspergillus versicolor ATCC 11730 incubated for 72 hrs followed by serial sub-cultivation for 72 hrs and measured after 72 hrs by serial dilution method; format: functional
Salmonella typhimurium [4] = assay: Bactericidal activity against Salmonella typhimurium ATCC 13311 incubated for 24 hrs followed by serial sub-cultivation and measured after 24 hrs by microdilution method; format: functional, Salmonella enterica subsp. enterica serovar Typhimurium
Micrococcus flavus [5] = assay: Antibacterial activity against Micrococcus flavus ATCC 10240 after 24 hrs by microdilution method; format: functional; details: ATCC 10240, 24 h
Penicillium ochrochloron [6] = assay: Fungicidal activity against Penicillium ochrochloron ATCC 9112 incubated for 72 hrs followed by serial sub-cultivation for 72 hrs and measured after 72 hrs by serial dilution method; format: functional
Talaromyces funiculosus [7] = assay: Fungicidal activity against Penicillium funiculosum ATCC 36839 incubated for 72 hrs followed by serial sub-cultivation for 72 hrs and measured after 72 hrs by serial dilution method; format: functional
Bacillus cereus [8] = assay: Bactericidal activity against Bacillus cereus incubated for 24 hrs followed by serial sub-cultivation and measured after 24 hrs by microdilution method; format: functional
Trichoderma viride [9] = assay: Fungicidal activity against Trichoderma viride IAM 5061 incubated for 72 hrs followed by serial sub-cultivation for 72 hrs and measured after 72 hrs by serial dilution method; format: functional
Aspergillus niger [10] = assay: Antifungal activity against Aspergillus niger ATCC 6275 after 72 hrs by serial dilution method; format: functional; details: ATCC 6275, 72 h
Trichoderma viride [11] = assay: Antifungal activity against Trichoderma viride IAM 5061 after 72 hrs by serial dilution method; format: functional; details: IAM 5061, 72 h
Escherichia coli [12] = assay: Antibacterial activity against Escherichia coli ATCC 35210 after 24 hrs by microdilution method; format: functional; details: ATCC 35210, 24 h
Aspergillus ochraceus [13] = assay: Fungicidal activity against Aspergillus ochraceus ATCC 12066 incubated for 72 hrs followed by serial sub-cultivation for 72 hrs and measured after 72 hrs by serial dilution method; format: functional
Talaromyces funiculosus [14] = assay: Antifungal activity against Penicillium funiculosum ATCC 36839 after 72 hrs by serial dilution method; format: functional; details: ATCC 36839, 72 h
Aspergillus niger [15] = assay: Fungicidal activity against Aspergillus niger ATCC 6275 incubated for 72 hrs followed by serial sub-cultivation for 72 hrs and measured after 72 hrs by serial dilution method; format: functional
Micrococcus flavus [16] = assay: Bactericidal activity against Micrococcus flavus ATCC 10240 incubated for 24 hrs followed by serial sub-cultivation and measured after 24 hrs by microdilution method; format: functional
Pseudomonas aeruginosa [17] = assay: Bactericidal activity against Pseudomonas aeruginosa ATCC 27853 incubated for 24 hrs followed by serial sub-cultivation and measured after 24 hrs by microdilution method; format: functional
Bacillus cereus [18] = assay: Antibacterial activity against Bacillus cereus after 24 hrs by microdilution method; format: functional
Candida albicans [19] = assay: Antifungal activity against Candida albicans after 72 hrs by serial dilution method; format: functional
Candida albicans [20] = assay: Fungicidal activity against Candida albicans incubated for 72 hrs followed by serial sub-cultivation for 72 hrs and measured after 72 hrs by serial dilution method; format: functional
Aspergillus fumigatus [21] = assay: Antifungal activity against Aspergillus fumigatus after 72 hrs by serial dilution method; format: functional
Aspergillus fumigatus [22] = assay: Fungicidal activity against Aspergillus fumigatus incubated for 72 hrs followed by serial sub-cultivation for 72 hrs and measured after 72 hrs by serial dilution method; format: functional
Staphylococcus aureus [23] = assay: Antibacterial activity against Staphylococcus aureus ATCC 6538 after 24 hrs by microdilution method; format: functional; details: ATCC 6538, 24 h
Aspergillus ochraceus [24] = assay: Antifungal activity against Aspergillus ochraceus ATCC 12066 after 72 hrs by serial dilution method; format: functional; details: ATCC 12066, 72 h
Aspergillus versicolor [25] = assay: Antifungal activity against Aspergillus versicolor ATCC 11730 after 72 hrs by serial dilution method; format: functional; details: ATCC 11730, 72 h
Enterobacter cloacae [26] = assay: Antibacterial activity against Enterobacter cloacae after 24 hrs by microdilution method; format: functional
Listeria monocytogenes [27] = assay: Bactericidal activity against Listeria monocytogenes NCTC 7973 incubated for 24 hrs followed by serial sub-cultivation and measured after 24 hrs by microdilution method; format: functional
Salmonella typhimurium [28] = assay: Antibacterial activity against Salmonella typhimurium ATCC 13311 after 24 hrs by microdilution method; format: functional, Salmonella enterica subsp. enterica serovar Typhimurium; details: Salmonella enterica, ATCC 13311, 24 h
Pseudomonas aeruginosa [29] = assay: Antibacterial activity against Pseudomonas aeruginosa ATCC 27853 after 24 hrs by microdilution method; format: functional; details: ATCC 27853, 24 h
Penicillium ochrochloron [30] = assay: Antifungal activity against Penicillium ochrochloron ATCC 9112 after 72 hrs by serial dilution method; format: functional; details: ATCC 9112, 72 h
Escherichia coli [31] = assay: Bactericidal activity against Escherichia coli ATCC 35210 incubated for 24 hrs followed by serial sub-cultivation and measured after 24 hrs by microdilution method; format: functional
Listeria monocytogenes [32] = assay: Antibacterial activity against Listeria monocytogenes NCTC 7973 after 24 hrs by microdilution method; format: functional; details: NCTC 7973, 24 h

| Compound | MBC99.5 (Staphylococcus aureus [1]) [×10⁻² umol/ml] | MBC99.5 (Enterobacter cloacae [2]) [×10⁻² umol/ml] | MFC99.5 (Aspergillus versicolor [3]) [×10⁻² umol/ml] | MBC99.5 (Salmonella typhimurium [4]) [×10⁻² umol/ml] | MIC (Micrococcus flavus [5]) [µM] | MFC99.5 (Penicillium ochrochloron [6]) [×10⁻² umol/ml] | MFC99.5 (Talaromyces funiculosus [7]) [×10⁻² umol/ml] | MBC99.5 (Bacillus cereus [8]) [×10⁻² umol/ml] | MFC99.5 (Trichoderma viride [9]) [×10⁻² umol/ml] | MIC (Aspergillus niger [10]) [µM] | MIC (Trichoderma viride [11]) [µM] | MIC (Escherichia coli [12]) [µM] | MFC99.5 (Aspergillus ochraceus [13]) [×10⁻² umol/ml] | MIC (Talaromyces funiculosus [14]) [µM] | MFC99.5 (Aspergillus niger [15]) [×10⁻² umol/ml] | MBC99.5 (Micrococcus flavus [16]) [×10⁻² umol/ml] | MBC99.5 (Pseudomonas aeruginosa [17]) [×10⁻² umol/ml] | MIC (Bacillus cereus [18]) [µM] | MIC (Candida albicans [19]) [µM] | MFC99.5 (Candida albicans [20]) [×10⁻² umol/ml] | also measured |
| --- | --- | --- | --- | --- | --- | --- | --- | --- | --- | --- | --- | --- | --- | --- | --- | --- | --- | --- | --- | --- | --- |
| O=C(N/N=C/c1c(F)cccc1F)c1nsc2ccccc12 | 25.2 | 25.2 | 12.6 | 6.3 | 252 (≈ 80 µg/mL) | 25.2 | 12.6 | 25.2 | 25.2 | 252 (≈ 80 µg/mL) | 126 (≈ 40 µg/mL) | 252 (≈ 80 µg/mL) | 12.6 | 31.5 (≈ 10 µg/mL) | 50.4 | 50.4 | 50.4 | 126 (≈ 40 µg/mL) | 252 (≈ 80 µg/mL) | 50.4 | MIC (Aspergillus fumigatus [21]): 15.8 µM (≈ 5.01 µg/mL); MFC99.5 (Aspergillus fumigatus [22]): 25.2 ×10⁻² umol/ml; MIC (Staphylococcus aureus [23]): 126 µM (≈ 40 µg/mL); MIC (Aspergillus ochraceus [24]): 15.8 µM (≈ 5.01 µg/mL); MIC (Aspergillus versicolor [25]): 15.8 µM (≈ 5.01 µg/mL); MIC (Enterobacter cloacae [26]): 63 µM (≈ 20 µg/mL); MBC99.5 (Listeria monocytogenes [27]): 50.4 ×10⁻² umol/ml; MIC (Salmonella typhimurium [28]): 31.5 µM (≈ 10 µg/mL); MIC (Pseudomonas aeruginosa [29]): 252 µM (≈ 80 µg/mL); MIC (Penicillium ochrochloron [30]): 126 µM (≈ 40 µg/mL); MBC99.5 (Escherichia coli [31]): 50.4 ×10⁻² umol/ml; MIC (Listeria monocytogenes [32]): 252 µM (≈ 80 µg/mL) |
| O=C(Cc1nsc2ccccc12)N/N=C/c1c(F)cccc1Cl | 48.2 | 48.2 | 23.2 | 48.2 | 362 (≈ 126 µg/mL) | 23.2 | 23.2 | 48.2 | 23.2 | 116 (≈ 40.3 µg/mL) | 116 (≈ 40.3 µg/mL) | 362 (≈ 126 µg/mL) | 23.2 | 116 (≈ 40.3 µg/mL) | 23.2 | 48.2 | 48.2 | 241 (≈ 83.8 µg/mL) | 464 (≈ 161 µg/mL) | 58 | MIC (Aspergillus fumigatus [21]): 464 µM (≈ 161 µg/mL); MFC99.5 (Aspergillus fumigatus [22]): 92.8 ×10⁻² umol/ml; MIC (Staphylococcus aureus [23]): 241 µM (≈ 83.8 µg/mL); MIC (Aspergillus ochraceus [24]): 116 µM (≈ 40.3 µg/mL); MIC (Aspergillus versicolor [25]): 116 µM (≈ 40.3 µg/mL); MIC (Enterobacter cloacae [26]): 362 µM (≈ 126 µg/mL); MBC99.5 (Listeria monocytogenes [27]): 96.4 ×10⁻² umol/ml; MIC (Salmonella typhimurium [28]): 241 µM (≈ 83.8 µg/mL); MIC (Pseudomonas aeruginosa [29]): 362 µM (≈ 126 µg/mL); MIC (Penicillium ochrochloron [30]): 116 µM (≈ 40.3 µg/mL); MBC99.5 (Escherichia coli [31]): 48.2 ×10⁻² umol/ml; MIC (Listeria monocytogenes [32]): 482 µM (≈ 168 µg/mL) |
